The test system of one test is Human alphaherpesvirus 1. The test is described as follows: microbe, parasite or virus in culture. The settings on record: Human alphaherpesvirus 1, KOS, HEL.
One may read the EC50 as the concentration needed to bring the measured effect to its halfway point. Low values mean higher potency in that assay, high ones lower potency in that assay. For `Nc1ncnc2c1ncn2CCOCP(=O)(O)OCCOCCCCCCCCCCO`, the EC50 was determined as 122 µM.

Consider `CCOCCOCCOCCOCCOCCOCCOP(=O)(O)CO[C@H](CO)Cn1ccc(N)nc1=O`, for which the EC50 is 3.5 µM.

Another test relates to Human alphaherpesvirus 2. As to the kind of experiment: microbe, parasite or virus in culture. The note with it: Human alphaherpesvirus 2, strain G, HEL.
The molecule `Nc1ncnc2c1ncn2CCOCP(=O)(O)OCCOCCCCCCCCCCO` gave a concentration giving a half-maximal response (EC50) of 122 µM.

`CCOCCOCCOCCOCCOCCOCCOP(=O)(O)CO[C@H](CO)Cn1ccc(N)nc1=O` gave a concentration giving a half-maximal response (EC50) of 1.4 µM.

The test system of another test is Human alphaherpesvirus 3. As to the kind of experiment: microbe, parasite or virus in culture. The note with it: Human alphaherpesvirus 3, strain Oka vaccine, HEL.
Consider `Nc1ncnc2c1ncn2CCOCP(=O)(O)OCCCCCCCCCCO`, for which a half-maximal response (EC50) required 114 µM.

`Nc1ncnc2c1ncn2CCOCP(=O)(OCCCCCCCCCCO)OCCCCCCCCCCO` had a concentration for a half-maximal effect (EC50) of over 34 µM.

On to `Nc1ncnc2c1ncn2CCOCP(=O)(OCCCCCCCCC(O)CO)OCCCCCCCCC(O)CO` (stereo not drawn), for which it took 99 µM to reach a half-maximal effect (EC50).

The molecule `Nc1ncnc2c1ncn2CCOCP(=O)(O)OCCOCCCCCCCCCCO` yielded an EC50 of 26 µM.

The molecule `Nc1ncnc2c1ncn2CCOCP(=O)(O)OCCOCCCCCCCCC(O)CO` (stereo not drawn) registered an EC50 of 61.4 µM.

For the next test, the system named is Human alphaherpesvirus 3. As to the kind of experiment: microbe, parasite or virus in culture. The settings on record: Human alphaherpesvirus 3, 07/1, HEL.
With `Nc1ncnc2c1ncn2CCOCP(=O)(O)OCCCCCCCCCCO`, a half-maximal effect (EC50) was put at 64.3 µM.

Take `Nc1ncnc2c1ncn2CCOCP(=O)(OCCCCCCCCCCO)OCCCCCCCCCCO`: the EC50 is over 34 µM.

Take `Nc1ncnc2c1ncn2CCOCP(=O)(OCCCCCCCCC(O)CO)OCCCCCCCCC(O)CO` (stereo not drawn): the concentration for a half-maximal effect (EC50) came out at 60.7 µM.

`Nc1ncnc2c1ncn2CCOCP(=O)(O)OCCOCCCCCCCCCCO` gave an EC50 of 18.4 µM.

`Nc1ncnc2c1ncn2CCOCP(=O)(O)OCCOCCCCCCCCC(O)CO` (stereo not drawn): the EC50 is at least 72.7 µM.

`Nc1ncnc2c1ncn2CCOCP(=O)(O)OCCOCCOCCOCCOCCOCCO` gave an EC50 of 40.9 µM.

A further test deals with Human betaherpesvirus 5. As to the kind of experiment: microbe, parasite or virus in culture. The note with it: Human betaherpesvirus 5, AD169, HEL.
Turning to `Nc1ncnc2c1ncn2CCOCP(=O)(OCCCCCCCCCCO)OCCCCCCCCCCO`, the EC50 is over 34 µM.

`Nc1ncnc2c1ncn2CCOCP(=O)(OCCOCCCCCCCCC(O)CO)OCCOCCCCCCCCC(O)CO` (stereo not drawn) came in with an EC50 of over 28.3 µM.

Take `CCOCCOCCOCCOCCOCCOCCOP(=O)(O)CO[C@H](CO)Cn1ccc(N)nc1=O`: the EC50 turned out to be 0.95 µM.

A further test deals with Human betaherpesvirus 5. The test is described as follows: microbe, parasite or virus in culture. The settings on record: Human betaherpesvirus 5, Davis, HEL.
`Nc1ncnc2c1ncn2CCOCP(=O)(OCCCCCCCCCCO)OCCCCCCCCCCO` showed an EC50 of over 34 µM.

A further test concerns Felid alphaherpesvirus 1. As to the kind of experiment: microbe, parasite or virus in culture. The note with it: Felid alphaherpesvirus 1, CRFK.
In turn, `CCOCCOCCOCCOCCOCCOCCOP(=O)(O)CO[C@H](CO)Cn1ccc(N)nc1=O` had an EC50 of 2800 nM.

The test system of another test is Vaccinia virus. The test is described as follows: microbe, parasite or virus in culture. The note with it: Orthopoxvirus vaccinia, HEL.
`CCOCCOCCOCCOCCOCCOCCOP(=O)(O)CO[C@H](CO)Cn1ccc(N)nc1=O`: the EC50 was 15.7 µM.

The subject of a further test is Human immunodeficiency virus 1. As to the kind of experiment: microbe, parasite or virus in culture. The settings on record: Human immunodeficiency virus 1, 3B, CCRF-CEM, 96 h.
On to `Nc1ncnc2c1ncn2CCOCP(=O)(O)OCCOCCCCCCCCCCO`, for which the EC50 was determined as 106 µM.

The next test deals with Human immunodeficiency virus 2. As to the kind of experiment: microbe, parasite or virus in culture. The settings on record: Human immunodeficiency virus 2, ISOLATE ROD, CCRF-CEM, 96 h.
The molecule `Nc1ncnc2c1ncn2CCOCP(=O)(O)OCCOCCCCCCCCCCO` had an EC50 of 95 µM.

The subject of another test is Respiratory syncytial virus. The test is described as follows: microbe, parasite or virus in culture. The note with it: human respiratory syncytial virus, HeLa.
Molecule `Nc1ncnc2c1ncn2CCOCP(=O)(OCCCCCCCCCCO)OCCCCCCCCCCO` had an EC50 of 99 µM.

The test system of a further test is Coxsackievirus B4. As to the kind of experiment: microbe, parasite or virus in culture. The note with it: Enterovirus B, Vero.
As for `Nc1ncnc2c1ncn2CCOCP(=O)(OCCCCCCCCCCO)OCCCCCCCCCCO`, the EC50 was over 34 µM.

The next test has as its system Human respirovirus 3. As to the kind of experiment: microbe, parasite or virus in culture. The note with it: Human respirovirus 3, Vero.
The molecule `Nc1ncnc2c1ncn2CCOCP(=O)(OCCCCCCCCCCO)OCCCCCCCCCCO` had an EC50 of over 34 µM.

For a further test, the system named is Mammalian orthoreovirus 1. The test is described as follows: microbe, parasite or virus in culture. The note with it: Mammalian orthoreovirus 1, Vero.
For the molecule `Nc1ncnc2c1ncn2CCOCP(=O)(OCCCCCCCCCCO)OCCCCCCCCCCO`, the EC50 was over 34 µM.

The subject of a further test is Sindbis virus. The test is described as follows: microbe, parasite or virus in culture. The note with it: Vero.
As to `Nc1ncnc2c1ncn2CCOCP(=O)(OCCCCCCCCCCO)OCCCCCCCCCCO`, the concentration for a half-maximal effect (EC50) is over 34 µM.

A further test concerns Punta Toro virus. The test is described as follows: microbe, parasite or virus in culture. The note with it: Vero.
Regarding `Nc1ncnc2c1ncn2CCOCP(=O)(OCCCCCCCCCCO)OCCCCCCCCCCO`, the EC50 was over 34 µM.

The next test deals with Influenza A virus. As to the kind of experiment: microbe, parasite or virus in culture. The settings on record: H1N1, MDCK.
The molecule `Nc1ncnc2c1ncn2CCOCP(=O)(O)OCCOCCCCCCCCCCO` had a half-maximal effective concentration (EC50) of over 42 µM.

`CCOC(=O)C1=C[C@@H](OC(CC)CC)[C@H](NC(C)=O)[C@@H](N)C1` [OSELTAMIVIR] showed an EC50 of 12 µM.

A further test has as its system Influenza A virus. As to the kind of experiment: microbe, parasite or virus in culture. The settings on record: H3N2, MDCK.
The molecule `Nc1ncnc2c1ncn2CCOCP(=O)(OCCCCCCCCC(O)CO)OCCCCCCCCC(O)CO` (stereo not drawn) showed an EC50 of over 324 µM.

For the molecule `Nc1ncnc2c1ncn2CCOCP(=O)(O)OCCOCCCCCCCCCCO`, the EC50 was over 42 µM.

Another test deals with Influenza B virus. The test is described as follows: microbe, parasite or virus in culture. The note with it: MDCK.
For `Nc1ncnc2c1ncn2CCOCP(=O)(O)OCCOCCCCCCCCCCO`, the EC50 is over 42 µM.

Regarding `CCOC(=O)C1=C[C@@H](OC(CC)CC)[C@H](NC(C)=O)[C@@H](N)C1` [OSELTAMIVIR], the response was half-maximal at 23.5 µM (EC50).

The subject of a further test is Human betaherpesvirus 5. The test is described as follows: microbe, parasite or virus in culture. The note with it: Human betaherpesvirus 5, AD169, HFF.
On to `CCCCCCCCCCCCCCOCCCOP(=O)(O)CO[C@H](CO)Cn1ccc(N)nc1=O`, for which the EC50 was found to be 2 nM.

With `CCCCCCCCCCCCCCCCOCCCOP(=O)(O)CO[C@H](CO)Cn1ccc(N)nc1=O` [BRINCIDOFOVIR], the EC50 is 0.9 nM.

The next test relates to Human immunodeficiency virus 1. As to the kind of experiment: microbe, parasite or virus in culture. The settings on record: Human immunodeficiency virus 1, LAI, MT2.
For the molecule `CCCCCCCCCCCCCCCCOCCCOP(=O)(O)COCCn1cnc2c(N)ncnc21`, the response was half-maximal at 0.015 nM (EC50).

Source of the values: ChEMBL document CHEMBL1811861 (Bioorg Med Chem, 2011).
